Data reported in PubChem BioAssay (NCI).
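Dose response: 5 concentrations. Exposure: 48 h. Format: 96-well plates. Endpoint: linear interpolation; highest concentration if not reached. Definition used: TGI = concentration required for complete inhibition of growth.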

What was measured:
Assay in all cases: growth of human tumour cells (NCI), 48 h
[1] = test system: HCC-2998 colon
[2] = test system: CAKI-1 renal
[3] = test system: UO-31 renal
[4] = test system: SK-MEL-5 melanoma
[5] = test system: T-47D breast
[6] = test system: LOX IMVI melanoma
[7] = test system: A549 NSCLC
[8] = test system: HT29 colon
[9] = test system: HOP-62 NSCLC
[10] = test system: M14 melanoma
[11] = test system: IGROV1 ovarian
[12] = test system: 786-0 renal
[13] = test system: MALME-3M melanoma
[14] = test system: A498 renal
[15] = test system: SW-620 colon
[16] = test system: KM12 colon
[17] = test system: MCF7 breast
[18] = test system: RXF 393 renal
[19] = test system: HS 578T breast
[20] = test system: ACHN renal
[21] = test system: MDA-MB-231 breast
[22] = test system: EKVX NSCLC
[23] = test system: MOLT-4 leukemia
[24] = test system: OVCAR-8 ovarian
[25] = test system: OVCAR-4 ovarian
[26] = test system: SR leukemia
[27] = test system: TK-10 renal
[28] = test system: HL-60(TB) leukemia
[29] = test system: K-562 leukemia
[30] = test system: MDA-N
[31] = test system: RPMI-8226 leukemia
[32] = test system: SF-268 CNS
[33] = test system: HCT-116 colon
[34] = test system: PC-3 prostate
[35] = test system: U251 CNS
[36] = test system: SF-539 CNS
[37] = test system: HCT-15 colon
[38] = test system: OVCAR-5 ovarian
[39] = test system: DU-145 prostate
[40] = test system: SF-295 CNS
[41] = test system: UACC-62 melanoma
[42] = test system: BT-549 breast
[43] = test system: NCI-H460 lung
[44] = test system: NCI-H23 lung
[45] = test system: SN12C renal
[46] = test system: SK-MEL-2 melanoma
[47] = test system: UACC-257 melanoma
[48] = test system: COLO 205 colon
[49] = test system: SNB-75 CNS
[50] = test system: MDA-MB-435
[51] = test system: SK-MEL-28 melanoma
[52] = test system: NCI-H522 lung
[53] = test system: NCI/ADR-RES ovarian
[54] = test system: OVCAR-3 ovarian
[55] = test system: HOP-92 NSCLC
[56] = test system: CCRF-CEM leukemia
[57] = test system: SNB-19 CNS
[58] = test system: NCI-H226 lung
[59] = test system: SK-OV-3 ovarian

With COc1ccc(-c2c(C#N)c(=O)nc(SC)n2C2OCC(OC(C)=O)C(OC(C)=O)C2OC(C)=O)cc1 (stereo unspecified) the TGI [1] was > 100 µM, the TGI [2] was > 100 µM and the TGI [3] was > 100 µM. For the same compound, the TGI [4] was > 100 µM, the TGI [5] was > 100 µM and the TGI [6] was > 100 µM. The TGI [7] was > 100 µM, the TGI [8] was > 100 µM and the TGI [9] was > 100 µM. For the same compound, the TGI [10] was > 100 µM, the TGI [11] was > 100 µM and the TGI [12] was > 100 µM. The TGI [13] was > 100 µM, the TGI [14] was > 100 µM and the TGI [15] was > 100 µM. For the same compound, the TGI [16] was > 100 µM, the TGI [17] was > 100 µM and the TGI [18] was > 100 µM. For the same compound, the TGI [19] was > 100 µM, the TGI [20] was > 100 µM and the TGI [21] was > 100 µM. The TGI [22] was > 100 µM, the TGI [23] was > 100 µM and the TGI [24] was > 100 µM. The TGI [25] was > 100 µM, the TGI [26] was 53.3 µM and the TGI [27] was > 100 µM. The TGI [28] was > 100 µM, the TGI [29] was > 100 µM and the TGI [30] was > 100 µM. The TGI [31] was > 100 µM, the TGI [32] was > 100 µM and the TGI [33] was > 100 µM. For the same compound, the TGI [34] was > 100 µM, the TGI [35] was > 100 µM and the TGI [36] was > 100 µM. For the same compound, the TGI [37] was > 100 µM, the TGI [38] was > 100 µM and the TGI [39] was > 100 µM. The TGI [40] was > 100 µM, the TGI [41] was > 100 µM and the TGI [42] was > 100 µM. The TGI [43] was > 100 µM, the TGI [44] was > 100 µM and the TGI [45] was > 100 µM. For the same compound, the TGI [46] was > 100 µM, the TGI [47] was > 100 µM and the TGI [48] was > 100 µM. For the same compound, the TGI [49] was > 100 µM, the TGI [50] was > 100 µM and the TGI [51] was > 100 µM. The TGI [52] was > 100 µM, the TGI [53] was > 100 µM and the TGI [54] was > 100 µM. For the same compound, the TGI [55] was > 100 µM, the TGI [56] was > 100 µM and the TGI [57] was > 100 µM. For the same compound, the TGI [58] was > 100 µM and the TGI [59] was > 100 µM.
For COc1cccc2c(=O)c3c(n(C)c12)OC(C(C)C)C3 (stereo unspecified), the TGI [1] was > 100 µM, the TGI [2] was > 100 µM and the TGI [3] was > 100 µM. The TGI [4] was > 100 µM, the TGI [5] was > 100 µM and the TGI [6] was > 100 µM. For the same compound, the TGI [7] was > 100 µM, the TGI [8] was > 100 µM and the TGI [9] was > 100 µM. The TGI [10] was > 100 µM, the TGI [11] was > 100 µM and the TGI [12] was > 100 µM. The TGI [13] was > 100 µM, the TGI [14] was > 100 µM and the TGI [15] was > 100 µM. The TGI [16] was > 100 µM, the TGI [17] was > 100 µM and the TGI [18] was > 100 µM. For the same compound, the TGI [19] was > 100 µM, the TGI [20] was > 100 µM and the TGI [21] was > 100 µM. For the same compound, the TGI [22] was > 100 µM, the TGI [23] was > 100 µM and the TGI [24] was > 100 µM. For the same compound, the TGI [25] was 89.2 µM, the TGI [26] was > 100 µM and the TGI [27] was > 100 µM. The TGI [28] was > 100 µM, the TGI [29] was 86.2 µM and the TGI [30] was > 100 µM. The TGI [31] was > 100 µM, the TGI [32] was > 100 µM and the TGI [33] was > 100 µM. For the same compound, the TGI [34] was > 100 µM, the TGI [35] was > 100 µM and the TGI [36] was > 100 µM. The TGI [37] was > 100 µM, the TGI [38] was > 100 µM and the TGI [39] was > 100 µM. The TGI [40] was > 100 µM, the TGI [41] was > 100 µM and the TGI [42] was > 100 µM. The TGI [43] was > 100 µM, the TGI [44] was > 100 µM and the TGI [45] was > 100 µM. For the same compound, the TGI [46] was > 100 µM, the TGI [47] was > 100 µM and the TGI [48] was > 100 µM. The TGI [49] was > 100 µM, the TGI [50] was > 100 µM and the TGI [51] was > 100 µM. For the same compound, the TGI [52] was > 100 µM, the TGI [53] was > 100 µM and the TGI [54] was > 100 µM. The TGI [55] was > 100 µM, the TGI [56] was > 100 µM and the TGI [57] was > 100 µM. The TGI [58] was > 100 µM and the TGI [59] was > 100 µM.
For COC(=O)CN1Cc2cc(C)cc(c2O)CN(CC(=O)OC)Cc2cc(C)cc(c2O)CN(CC(=O)OC)Cc2cc(C)cc(c2O)C1, the TGI [1] was > 100 µM, the TGI [2] was > 100 µM and the TGI [3] was > 100 µM. For the same compound, the TGI [4] was > 100 µM, the TGI [5] was > 68.5 µM and the TGI [6] was > 100 µM. The TGI [7] was > 100 µM, the TGI [8] was > 100 µM and the TGI [9] was > 100 µM. For the same compound, the TGI [10] was > 86.6 µM, the TGI [11] was > 100 µM and the TGI [12] was > 100 µM. For the same compound, the TGI [13] was > 100 µM, the TGI [14] was > 84.3 µM and the TGI [15] was > 100 µM. The TGI [16] was > 100 µM, the TGI [17] was > 96.3 µM and the TGI [18] was > 75 µM. For the same compound, the TGI [19] was > 100 µM, the TGI [20] was > 100 µM and the TGI [21] was > 77.2 µM. For the same compound, the TGI [22] was > 100 µM, the TGI [23] was > 100 µM and the TGI [24] was > 100 µM. For the same compound, the TGI [25] was > 100 µM, the TGI [26] was > 100 µM and the TGI [27] was > 100 µM. The TGI [28] was > 100 µM, the TGI [29] was > 100 µM and the TGI [30] was > 100 µM. The TGI [31] was > 100 µM, the TGI [32] was > 100 µM and the TGI [33] was > 100 µM. The TGI [34] was > 73.7 µM, the TGI [35] was > 100 µM and the TGI [36] was > 100 µM. For the same compound, the TGI [37] was > 100 µM, the TGI [38] was > 100 µM and the TGI [39] was > 100 µM. The TGI [40] was > 100 µM, the TGI [41] was > 100 µM and the TGI [42] was > 100 µM. For the same compound, the TGI [43] was > 100 µM, the TGI [44] was > 100 µM and the TGI [45] was > 100 µM. For the same compound, the TGI [46] was > 77.1 µM, the TGI [47] was > 100 µM and the TGI [48] was > 100 µM. The TGI [49] was > 74.7 µM, the TGI [50] was > 100 µM and the TGI [51] was > 100 µM. For the same compound, the TGI [52] was > 100 µM, the TGI [53] was > 100 µM and the TGI [54] was > 100 µM. The TGI [55] was > 100 µM, the TGI [56] was > 100 µM and the TGI [57] was > 100 µM. The TGI [58] was > 61.3 µM and the TGI [59] was > 100 µM.
Compound CN1c2ccc(O)c(O)c2-c2cc(O)cc3c2C1CCC3 (stereo unspecified) has a TGI [1] of 49.1 µM, a TGI [2] of 48.9 µM and a TGI [3] of 29.6 µM. The TGI [4] was 35.5 µM, the TGI [5] was 42.6 µM and the TGI [6] was 26.3 µM. For the same compound, the TGI [7] was > 74.1 µM, the TGI [8] was 66.2 µM and the TGI [9] was 32.6 µM. The TGI [10] was 34.8 µM, the TGI [11] was 27.9 µM and the TGI [12] was 35.5 µM. The TGI [13] was 31.3 µM, the TGI [14] was > 100 µM and the TGI [15] was 63.5 µM. For the same compound, the TGI [16] was > 61 µM, the TGI [17] was 41.5 µM and the TGI [18] was 24.3 µM. For the same compound, the TGI [19] was > 72.9 µM, the TGI [20] was 31.3 µM and the TGI [21] was > 66.1 µM. It also gave a TGI [22] of 46.9 µM, a TGI [23] of 35.6 µM and a TGI [24] of 65.6 µM. The TGI [25] was 28.4 µM, the TGI [26] was 24.9 µM and the TGI [27] was 32.9 µM. For the same compound, the TGI [28] was 39.2 µM, the TGI [29] was 40.8 µM and the TGI [30] was 38.3 µM. The TGI [31] was 25.8 µM, the TGI [32] was 33 µM and the TGI [33] was 47.2 µM. The TGI [34] was 49.2 µM, the TGI [35] was > 65 µM and the TGI [36] was 42.2 µM. The TGI [37] was 59.4 µM, the TGI [38] was 50.7 µM and the TGI [39] was 30.6 µM. The TGI [40] was > 100 µM, the TGI [41] was 32.3 µM and the TGI [42] was 39.8 µM. The TGI [43] was > 59.5 µM, the TGI [44] was 58.3 µM and the TGI [45] was 51.7 µM. It also gave a TGI [46] of 58.6 µM, a TGI [47] of 42.2 µM and a TGI [48] of 47.5 µM. It also gave a TGI [49] of 34.4 µM, a TGI [50] of 31 µM and a TGI [51] of 48.7 µM. The TGI [52] was 28.4 µM, the TGI [53] was > 64.6 µM and the TGI [54] was 19.5 µM. For the same compound, the TGI [55] was 33.3 µM, the TGI [56] was 9.61 µM and the TGI [57] was > 100 µM. For the same compound, the TGI [58] was > 60.2 µM and the TGI [59] was > 100 µM.
